Experimental data reported in US9983196B2, “Compositions and methods for optimizing drug hydrophobicity and drug delivery to cells” (Bioelastics, Inc., priority 2009, dated 2018).

Tests used:
[1] = negatively stained, electron micrograph; cited from earlier work
[2] = cited from earlier work
[3] = differential scanning calorimetry of the inverse temperature transition: ΔGHA-based hydrophobicity scale; format: physicochemical
Description: Described herein is a hydrophobicity scale based on the change in Gibbs free energy of hydrophobic association. Increase in entropy of water drives endothermic phase transition of hydrophobic association. For a narrow phase transition the chemical potential, t, of the molecules in the phase separated, hydrophobically associated state, 1.IHA, and the solution, hydrophobically dissociated state, 1.1HD, are equal. Therefore, at constant temperature and pressure, i.e., at equilibrium, the change in Gibbs free energy for the phase transition is zero, (ΔGt)TP=0 and ΔHT=TtΔSt. For the breadth of the transition of elastic-contractile model proteins [ECMP], it is written: ΔHt≈TtΔSt, (1) i.e., the heat of the transition, ΔHt in kcal/mol, is approximated by the product of the temperature of the transition, Tt in ° K, times the entropy change attending the transition, ΔSt in kcal/° K-mol.
The van der Walls interaction is exothermic for the hydrophobic association attending the ITT, yet the ITT is endothermic. […] The derivation of the change in Gibbs free energy for hydrophobic association, ΔGHA, and evaluation by inverse temperature transition of hydrophobic association has been reported previously (D. W. Urry, The Change in Gibbs Free Energy for Hydrophobic Association Derivation and Evaluation by means of Inverse Temperature Transitions. Chem. Phys. Letters 399 (2004) 177-183.), and is given more simply below. […]
Given the above approximation, but also recognizing that ASt is a calculated result from the differential scanning calorimetric measurement of ΔHt, we define the change in Gibbs free energy for hydrophobic association, ΔGHA, as,
The differential scanning calorimetry (DSC) data of ΔHt(GVGVP) (SEQ ID NO:4) and ΔHt(GVGIP) (SEQ ID NO:8) in FIG. 1 of Luan and Urry, J Phys Chem 95:7896-7900, 1991 provide a specific example of the difference that defines ΔGHA. […] This is the same value of 1.5 kcal/mol-CH2 for the addition of a single CH2 as determined by Butler for the alcohol series.
Once the values are determined by difference with ΔHt(GVGVP) (SEQ ID NO:4) as represented in FIG. 1E, they are translated so the reference polymer is taken as (GGGVP (SEQ ID NO:11), as this residue is considered to be close to neutral, being neither polar nor apolar. For use of (GGGVP) (SEQ ID NO:11) as the reference, i.e., ΔHt(GGGVP) (SEQ ID NO:11)=AHt(ref), in Table 3 and FIG. 13, the change in Gibbs free energy for hydrophobic association is indicated as ΔG^oHA, i.e., […]
In this case most of the ΔG^oHA values have been obtained by taking the experimental Tt, suitably extrapolated to fx=1 to obtain Tt, and reading the value of ΔG^oHA from the sigmoid curve of FIG. 13. […]

[4] = cited from earlier work; remark: listed apart in the source

Substance | nominal size of nanoparticles [1] [nm] | Tt ([2]; guest residue χ in poly[fχ(GχGVP),fv(GVGVP)], extrapolated to fχ=1, some cells marked (Tt)) | Tt linearly extrapolated to fX = 1 ([2]; poly[fV(VPGVG),fX(VPGXG)], 40 mg/ml polymer, 0.15N NaCl, 0.01M phosphate pH 7.4) [°C] | contribution to change in Gibbs free energy for hydrophobic association on phosphorylation of Ser [3] | ΔG°HA(GχGVP) (from graph) ([4]; Tt used to obtain value from experimental sigmoid curve of Tt versus ΔG°HA) | ΔG°HA from FIG. 13 ([4]; gross estimates (±0.5 kcal/mol) from Tt and curve, 40 mg/ml polymer, 0.15N NaCl, 0.01M phosphate pH 7.4)
(GVGVPGVGFPGEGFPGVGVPGVGFPGFGFP)42 (GVGVP) (GVGVPGVGFPGEGFPGVGVPGVGFPGFGFPGVGVP; repeat (1)..(30) the first 30 residues are repeated 42 times) [ECMP polymer of 253 pentamers forming drug delivery nanoparticles] | 50 | – | – | – | – | –
Ser (PO4^−2) | – | 860 (Tt) ° C. | 860 | about +8 kcal/mol | ≈+8.0 (from graph) kcal/mol-pentamer | +8.0 kcal/mol
